Results reported in US20030181401A1, “Insulin secretion promoter” (KYOWA HAKKO KOGYO CO., LTD., priority 2002, published 2003).

Columns and labels:
Assay type in all cases: in vivo
ICR mice [1] = assay: Test Example 8: serum insulin in glucose tolerance test after single oral 2′-FL dose
Protocol: Groups of male 8-week-old ICR mice (Japan SLC, Inc.) each consisting of 6 mice were fed CE-2 (Clea Japan, Inc.) for one week, so as to accustom the animals to the environment.
Then, the mice accustomed were fasted for 18 hours. An aqueous 2% solution of 2′-FL was orally administered to the mice to 100 mg (2′-FL)/kg body weight, while 0.9% saline was administered orally to the control group. Two hours after the 2′-FL dosing, an aqueous 40% glucose solution was orally administered to 2 g (glucose)/kg body weight to the mice, for glucose tolerance test. […] Blood glucose was assayed with a simple-type blood glucose assay apparatus Medisafe Reader GR-101 (Terumo, Co., Ltd.), while the serum was collected.
Insulin in the serum recovered was assayed by enzyme immunoassay using Morinaga ultra-sensitive rat insulin assay kit (Morinaga Biochemical Research Institute, Co., Ltd.) described below. 15 μl of the serum was divided in the wells of an antibody-immobilized plate, where 85 μl of the diluent attached to the kit was divided therein, for reaction at 4° C. for 2 hours. […] The absorbance of each well at 450 nm (principal wave length) and 655 nm (sub wave length) was measured with BioRad Model 3550 microplate reader (BioRad Laboratories, Inc.). […] Based on the prepared standard curve, the serum insulin concentration corresponding to the absorbance during the reaction with the serum was determined.

ICR mice [2] = assay: Test Example 6: serum glucose after intravenous saccharide with simultaneous oral glucose loading
Protocol: (§1) Groups of male 9-week-old ICR mice (Japan SLC, Inc.) each consisting of 7 mice were fed CE-2 (Clea Japan, Inc.) for one week, so as to accustom the animals to the environment. Then, the mice were fasted for 18 hours.
(§2) An aqueous 10% solution of 2′-FL or NeuAc was intravenously administered to the mice to 500 mg (saccharide)/kg body weight, while an aqueous 40% glucose solution was orally administered simultaneously to 2 g (glucose)/kg body weight, to the mice. To the control group, physiological saline was administered intravenously, while glucose was orally administered simultaneously to 2 g/kg body weight. Zero minute and 30 minutes after glucose loading, blood was taken from a tail vein. […] Blood was centrifuged (4° C., 10000 rpm, 10 minutes), to obtain serum.
Furthermore, the glucose concentration in the serum recovered was also assayed. The glucose concentration was assayed, using Glucose CII-TEST WAKO (WAKO Pure Chemical Industries, Ltd.). 2 μl of the recovered serum was placed in a 96-well plate, followed by addition of 200 μl of the chromogenic solution attached to the kit, for incubation at 37° C. for 10 minutes. After incubation, the absorbance at 490 nm was assayed with a plate reader. Herein, a standard curve was prepared by using aqueous 500 mg/dl glucose solution as the standard solution to dilute the standard solution appropriately for the same reaction as for the serum, and plotting the relation between the concentration and the absorbance (490 nm). Based on the prepared standard curve and the absorbance from the reaction with the serum, the glucose concentration in the serum was determined.

ICR mice [3] = assay: Test Example 7: serum insulin after intravenous 2′-FL dosing without glucose loading
Protocol: Groups of male 9-week-old ICR mice (Japan SLC, Inc.) each consisting of 7 mice were fed a commercially available CE-2 (Clea Japan, Inc.) for one week, so as to accustom the mice to the environment. Thereafter, an aqueous 1% solution of 2′-FL was intravenously administered to the mice to 50 mg (2′-FL)/kg body weight. The same volume of saline was administered to the control group. Zero minute and 30 minutes after dosing, blood was taken from a tail vein. […] Blood was centrifuged (4° C., 10000 rpm, 10 minutes), to obtain serum.
(§3) Insulin in the serum recovered was assayed by enzyme immunoassay using Lebis Insulin kit (for mice-T) (Shibayagi, Co., Ltd.) in the same manner as in the Test Example 2.

ICR mice [4] = assay: Test Example 6: serum insulin after intravenous saccharide with simultaneous oral glucose loading
Protocol: as §1, §2, §3

[5] = ICR mice fasted 18 hours, 500 mg/kg intravenous with simultaneous glucose 2 g/kg oral, 30 minutes, mean ± SD
[6] = ICR mice fasted 18 hours, 500 mg/kg intravenous with simultaneous glucose 2 g/kg oral, 120 minutes, mean ± SD

2′-fucosyllactose [2′-FL]
Serum insulin concentration after glucose loading (ICR mice [1]; ICR mice fasted 18 hours, 100 mg/kg single oral dose two hours before glucose 2 g/kg oral, 60 minutes, mean ± SD): 82.6 ± 91.7 pg/mL | serum insulin concentration after glucose loading compared with the control group (in words) (ICR mice [1]; ICR mice, single oral dosing 120 minutes before glucose dosing): increased | Serum glucose concentration after glucose loading, 30 minutes (ICR mice [2]; [5]): 331.4 ± 68.6 mg/dL | Serum glucose concentration after glucose loading, 120 minutes (ICR mice [2]; [6]): 169.2 ± 29.5 mg/dL | Serum glucose concentration after glucose loading, Zero minute (ICR mice [2]; ICR mice fasted 18 hours, 500 mg/kg intravenous with simultaneous glucose 2 g/kg oral, zero minute, mean ± SD): 102.4 ± 23.3 mg/dL | increase of the serum glucose concentration compared with the control group (in words) (ICR mice [2]; ICR mice, intravenous dosing): suppressed | Serum insulin concentration after 2′-FL dosing, 30 minutes (ICR mice [3]; 50 mg/kg intravenous, no glucose loading, 30 minutes after dosing, mean ± SD): 168.6 ± 40.2 pg/mL | Serum insulin concentration after 2′-FL dosing, 120 minutes (ICR mice [3]; 50 mg/kg intravenous, no glucose loading, 120 minutes after dosing, mean ± SD): 2035.9 ± 1098.0 pg/mL | serum insulin concentration compared with the control group (in words) (ICR mice [3]; intravenous 2′-FL dosing): increased | Serum insulin concentration after glucose loading, 30 minutes (ICR mice [4]; [5]): 192.3 ± 57.4 pg/mL | Serum insulin concentration after glucose loading, 120 minutes (ICR mice [4]; [6]): 2090.7 ± 533.1 pg/mL | serum insulin concentration after glucose loading compared with the control group (in words) (ICR mice [4]; ICR mice, intravenous dosing): increased
